GI50 and TGI data for eight compounds are collected here from PubChem BioAssay (NCI).

Some test systems named below: A498 renal; ACHN renal; HCT-116 colon; M14 melanoma; NCI-H226 lung; NCI-H460 lung; OVCAR-3 ovarian; OVCAR-5 ovarian; SF-268 CNS; SR leukemia.
What all share (test): NCI-60 cell line screen, 48 h

Values joined by “and” are separate entries in the source; they are usually repeats but may differ in a detail not shown here. Equal values may be shown once.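 96-well plates; 48 h exposure; 5 concentrations. Endpoints by linear interpolation between flanking doses. Not reached: highest tested concentration assigned. GI50 marks 50% less growth. TGI: concentration producing complete growth inhibition.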

Regarding `CC(C)c1ccc(Nc2nccc(-c3cnn4ncccc34)n2)cc1`, the GI50 in the assay with A498 renal is 0.542 µM; with ACHN renal, 0.189 µM; in the assay on HCT-116 colon it was 0.324 µM; with M14 melanoma, 0.688 µM; in the assay with NCI-H226 lung, 0.227 µM; in the assay on NCI-H460 lung it was 0.496 µM. Moreover, the GI50 was 0.516 µM in the assay on OVCAR-3 ovarian, 0.44 µM with OVCAR-5 ovarian, 0.692 µM with SF-268 CNS and 0.234 µM with SR leukemia. Besides, the TGI in the assay on A498 renal is 1.48 µM; in the assay on ACHN renal, over 10.3 µM; in the assay with HCT-116 colon it was 4.29 µM; in the assay with M14 melanoma it was 2.48 µM; in the assay with NCI-H226 lung it was 2.45 µM; with NCI-H460 lung, 4.95 µM. Further, the TGI in the assay on OVCAR-3 ovarian is over 6.26 µM; in the assay on OVCAR-5 ovarian, over 12.3 µM; in the assay on SF-268 CNS it was 4.42 µM; in the assay on SR leukemia, over 25 µM.

Consider `COc1cc(C2C3=C(COC3=O)Nc3cc4c(cc32)CCC4)cc2c1OCO2` (stereo not drawn), for which the GI50 in the assay with A498 renal was 0.025 µM; in the assay with ACHN renal, 0.114 µM; with HCT-116 colon it was 0.0428 µM; in the assay on M14 melanoma, 0.0743 µM; with NCI-H226 lung it was 0.0391 µM; in the assay on NCI-H460 lung, 0.0394 µM. Moreover, the GI50 was 0.0231 µM with OVCAR-3 ovarian, 0.231 µM in the assay with OVCAR-5 ovarian, 0.0558 µM with SF-268 CNS and 0.0453 µM with SR leukemia. For the same compound, the TGI turned out to be 0.0964 µM in the assay on A498 renal; 21.4 µM in the assay with ACHN renal; 1.31 µM in the assay on HCT-116 colon; 3.48 µM in the assay with M14 melanoma; 1.6 µM with NCI-H226 lung; 6.18 µM in the assay on NCI-H460 lung. Further, the TGI with OVCAR-3 ovarian is 0.047 µM; with OVCAR-5 ovarian, 41.7 µM; in the assay on SF-268 CNS, 6.58 µM; in the assay with SR leukemia, over 34.5 µM.

For `O=C(N/N=C/c1cc([N+](=O)[O-])ccc1O)c1cccc2ccccc12`, the GI50 was 2.71 µM in the assay with A498 renal; 3.08 µM in the assay with ACHN renal; 2.56 µM in the assay on HCT-116 colon; 2.87 µM with M14 melanoma; 2.45 µM with NCI-H226 lung; 2.75 µM with NCI-H460 lung. Besides, the GI50 in the assay on OVCAR-3 ovarian is 3.67 µM; in the assay with OVCAR-5 ovarian, 6.2 µM; in the assay with SF-268 CNS it was 4.12 µM; in the assay with SR leukemia, 1.81 µM. The TGI in the assay on A498 renal is 29.3 µM; with ACHN renal, 44.7 µM; in the assay on HCT-116 colon, over 100 µM; with M14 melanoma, 68.4 µM; with NCI-H226 lung, 11.5 µM; in the assay on NCI-H460 lung, over 100 µM. Besides, the TGI in the assay on OVCAR-3 ovarian was over 100 µM; with OVCAR-5 ovarian it was over 100 µM; in the assay on SF-268 CNS, over 100 µM; in the assay with SR leukemia it was 16.1 µM.

Turning to `CS/C(=N\c1nccs1)NC(=O)c1cccc(Cl)c1`, the TGI in the assay on A498 renal, in the assay with ACHN renal, in the assay on HCT-116 colon, with M14 melanoma, in the assay with NCI-H226 lung and in the assay with NCI-H460 lung was over 100 µM in each case. Also, the TGI with OVCAR-3 ovarian, in the assay with OVCAR-5 ovarian, with SF-268 CNS and in the assay on SR leukemia was over 100 µM in each case.

For the compound `O=C(CCc1cc(-c2ccccc2)nc(=S)[nH]1)Nc1ccccc1[N+](=O)[O-]`, the TGI with A498 renal, in the assay with ACHN renal, with HCT-116 colon, with M14 melanoma, in the assay with NCI-H226 lung and with NCI-H460 lung was over 100 µM throughout. In addition, the TGI with OVCAR-3 ovarian, in the assay with OVCAR-5 ovarian, with SF-268 CNS and with SR leukemia was over 100 µM each time.

As for `Nc1nc(N)c(N=O)c(OCC2CCCCC2)n1`, the TGI was 43 µM and 50.2 µM with A498 renal; > 100 µM and 34.3 µM in the assay on ACHN renal; over 100 µM with HCT-116 colon; > 100 µM and 52.2 µM with M14 melanoma; > 100 µM and 46.5 µM in the assay with NCI-H226 lung; > 80.5 µM and 38.1 µM in the assay on NCI-H460 lung. Besides, the TGI in the assay with OVCAR-3 ovarian was 64.7 µM and 61.5 µM; in the assay on OVCAR-5 ovarian, > 100 µM and 57.8 µM; in the assay with SF-268 CNS it was over 95.4 µM; with SR leukemia, > 85.9 µM and 27.4 µM. The GI50 with ACHN renal is 5.47 µM; with M14 melanoma, 11.8 µM; with NCI-H226 lung, 6.65 µM; in the assay on NCI-H460 lung, 8.93 µM; in the assay on OVCAR-3 ovarian, 7.37 µM; in the assay on OVCAR-5 ovarian it was 17.2 µM. Also, the GI50 in the assay on SF-268 CNS is 5.82 µM; in the assay with SR leukemia it was 6.22 µM.

Consider `O=C(OCCBr)c1ccc(Cl)c([N+](=O)[O-])c1`, for which the GI50 was 17.7 µM with A498 renal; 18.8 µM in the assay on ACHN renal; 14.3 µM in the assay on HCT-116 colon; 16.4 µM in the assay with M14 melanoma; 17.7 µM in the assay with NCI-H226 lung; 14.9 µM with NCI-H460 lung. The GI50 with OVCAR-3 ovarian was 2.69 µM; with OVCAR-5 ovarian, 18 µM; in the assay with SF-268 CNS, 5.44 µM; with SR leukemia, 7.9 µM. For the same compound, the TGI was 42.4 µM in the assay on A498 renal; 34.4 µM in the assay with ACHN renal; 30.4 µM in the assay on HCT-116 colon; 36.6 µM in the assay with M14 melanoma; 37.6 µM in the assay with NCI-H226 lung; 33.5 µM in the assay on NCI-H460 lung. In addition, the TGI was determined as 6.43 µM with OVCAR-3 ovarian, 34.5 µM in the assay on OVCAR-5 ovarian, 10.3 µM in the assay on SF-268 CNS and 31.5 µM in the assay with SR leukemia.

Take `CCCCN(CCCC)c1ccc(C(=NC(C)CCCN(CC)CC)c2ccc(N(C)C)cc2)cc1` (stereo not drawn): the GI50 is 0.789 µM with A498 renal; 0.935 µM in the assay with ACHN renal; 0.537 µM with HCT-116 colon; 0.873 µM with M14 melanoma; 1.18 µM in the assay with NCI-H226 lung; 0.842 µM with NCI-H460 lung. Further, the GI50 in the assay with OVCAR-3 ovarian is 0.846 µM; with OVCAR-5 ovarian it was 1.31 µM; with SF-268 CNS, 0.864 µM; in the assay on SR leukemia it was 0.708 µM. Further, the TGI with A498 renal came out at 2.39 µM; in the assay with ACHN renal, 1.89 µM; with HCT-116 colon, 1.27 µM; with M14 melanoma it was 1.72 µM; with NCI-H226 lung, 3.06 µM; with NCI-H460 lung, 1.64 µM. Moreover, the TGI was determined as 1.81 µM with OVCAR-3 ovarian, 3.47 µM in the assay on OVCAR-5 ovarian, 2.06 µM with SF-268 CNS and 1.82 µM in the assay with SR leukemia.
